Measurements taken from patent US8940701B2, “Compounds for, and methods of, treating cancer and inhibiting invasion and metastases” (The Regents of the University of Michigan, priority 2009, dated 2015).

Tests used:
[1] = test system: hmvec, normal human microvascular cells; conditions: cited from earlier work
[2] = test system: human breast and prostate cancer cell lines; conditions: systemic; cited from earlier work
[3] = test system: end-stage human cancers; conditions: cited from earlier work
[4] = test system: metastatic human breast (SUM 52 PE) and prostate (DU 145) cancer cell lines, human microvascular cells (hmvec); type: cell-based; conditions: 72 h
Protocol: Some of the examples below employ an invasion assay utilizing naturally occurring basement membranes from 72 hour sea urchin embryos. Breast and prostate cancer invasion was induced with serum; hmvec invasion was induced with the PHSRN sequence of the plasma fibronectin (pFn) cell binding domain. The assay is described in U.S. Pat. No. 6,001,965, hereby incorporated by reference.
In this example, PHSCN peptides, where the sulfur of the SH group of cysteine was modified to block disulfide bond formation, were tested in an in vitro invasion assay utilizing naturally occurring basement membranes. More specifically, the invasion-inhibiting potencies of S-methylated and S-acetylated derivatives of the PHSCN (SEQ ID NO:1) peptide [i.e. Ac-PHSC(S—CH3)N—NH2 (SEQ ID NO:3) and Ac-PHSC(S—COCH3)N—NH2, (SEQ ID NO:4), respectively] were quantitated [in comparison with PHSCN (SEQ ID NO:1) dimerized by S—S bond formation] with two types of metastatic human cancer cell lines, i.e. a breast cell line (SUM 52 PE) and a prostate cell line (DU 145) (see FIG. 1 and FIG. 2, respectively). These modified peptides prevent breast cancer and prostate cancer invasion at concentrations in the pg/ml range.
In this example, PHSCN peptides, where two L-amino acids are substituted with D-amino acids, were tested in an in vitro invasion assay utilizing naturally occurring basement membranes. More specifically, the invasion-inhibiting potencies of Ac-PHScN—NH2 (SEQ ID NO:7), and Ac-PhScN—NH2 (SEQ ID NO:8) were quantitated [in comparison with Ac-PHSCN—NH2 (SEQ ID NO:12) as well as a scrambled peptide Ac-HSPNC—NH2 (SEQ ID NO:15)] with two types of metastatic human cancer cell lines, i.e. a breast cell line (SUM 52 PE) and a prostate cell line (DU 145) (see FIG. 3 and FIG. 4, respectively), as well as human microvascular cells (“hmvec”) (see FIG. 5). These modified peptides prevent breast cancer and prostate cancer invasion at concentrations in the pg/ml range.
Table I compares IC50's of Ac-PHSCN—NH2 (“PHSCN”) (SEQ ID NO:12), Ac-PhScN—NH2 (SEQ ID NO:8) (“PhScN”), Ac-PHScN—NH2 (SEQ ID NO:7) (“PHScN”), and the S-methylated and S-acetylated PHSCN derivatives [Ac-PHSC(S-Me)N—NH2 (SEQ ID NO:3) and Ac-PHSC(S—COCH3)N—NH2 (SEQ ID NO:4)]. The IC50 for PhScN is over 10,000-fold lower than that for PHSCN.

[5] = test system: DU 145 prostate cancer; assay: subcutaneous DU 145 tumors in nude mice, systemic therapy; type: in vivo, athymic nude mice; conditions: 0.5 mg per kg thrice-weekly by tail vein injection, 7 weeks of treatment
Protocol: In this example, PHSCN peptides, where two L-amino acids are substituted with D-amino acids, were tested in vivo. FIG. 6 compares the antitumorigenic effects of systemic Ac-PhScN—NH2 (SEQ ID NO:8) therapy at three different dosages (0.5, 0.05, and 0.005 micrograms per kg) with the antitumorigenic effects of 0.5 mg (500 micrograms) per kg of Ac-PHSCN—NH2 (SEQ ID NO:12) therapy using the DU 145 prostate cancer (as well as with untreated controls). The experiment involved generating subcutaneous DU 145 tumors in nude mice. More specifically, 500,000 suspended DU 145 cells were injected subcutaneously into the flanks of athymic nude mice. All mice were allowed to grow untreated DU 145 tumors in their flanks for about 8 weeks. All 3 therapies (i.e. using the three different dosages) were administered thrice-weekly by tail vein injection after the tumors became palpable. Each treatment group consisted of 8 intramuscular (flank) tumors. After 7 weeks of treatment, when the untreated tumors were very large, all mice were sacrificed at the same time, and all tumors dissected out and measured.

[6] = target: α5β1 integrin (Homo sapiens, UniProt P08648); assay: surface α5β1 levels on irradiated pancreatic cancer cells (immunofluorescence); type: cell-based; parameters: surface α5β1 levels on irradiated pancreatic cancer cells; endogenous in cells; host or cells: Panc1 and BxPC-3 pancreatic cancer cells; conditions: 1 μg per ml prebound 1 hour; Panc1 2 Gy, BxPC-3 3 Gy; 1 hr and 2 hr
Protocol: In this example, antibodies are used to measure downregulation of surface α5β1 levels on irradiated pancreatic cancer cells. Cells were prebound to 1 μg per ml Ac-PHSCN—NH2 (SEQ ID NO:12) peptide per 20,000 cells in medium containing 10% fetal bovine serum for serum for 1 hour at 37° C. The peptide-containing medium was removed, and replaced with serum-containing medium, prior to irradiation. Adherent cells were irradiated once: 2 Gy for Panc1 cells, and 3 Gy for BxPC-3 cells. One hour after irradiation, cells were quickly rinsed with phosphate-buffered saline (PBS) pH 7.4), then fixed for 15 minutes in 4% Paraformaldahyde (commercially available from Fluka) in PBS at room temperature. […] After three PBS washes, cells were incubated in anti-mouse IgG secondary antibody, conjugated with fluorosceine isothiocyanate (FITC) fluorescence marker (commercially available from Jackson ImmunoResearch Lab, Inc) at 1:200 dilution for 1 h at room temperature. […]
Means and first standard deviations (SD) were calculated using Image-Pro Plus software over 30 areas per treatment selected randomly under 400-fold magnification, then copied and pasted on Microsoft Excel data sheets for further data analysis. All data (see FIG. 10) are expressed as mean±SD and evaluated with ANOVA Student t-test. […]

[7] = test system: BxPC-3 cells; assay: invasion of irradiated cells on SU-ECM basement membranes; type: cell-based; conditions: 1 μg/ml peptide, single 3 Gy dose, 16 hours
Protocol: (§1) Adherent BxPC-3 and Panc1 cells were irradiated. Panc1 cells received a single 2 Gy dose. BxPC-3 cells received a single 3 Gy dose. Approximately 45 minutes later, the cells were suspended (trypsinized), pelleted and resuspended in medium containing 10% fetal calf serum. Then, the appropriate concentration of the Ac-PHSCN—NH2 (SEQ ID NO: 12) peptide, as well as a scrambled peptide Ac-HSPNC—NH2 (SEQ ID NO:15), was added to the suspended cells to make a final peptide concentration of 1 μg/ml, and they were dropped onto the surfaces of SU-ECM (sea urchin embryo basement membranes). At the time the cells were placed on the basement membranes, one hour had elapsed since irradiation. Cells were incubated on the basement membranes for 16 hours at 37° C. in 5% CO2, prior to scoring at 400-fold magnification, under phase contrast optics. All single cells adherent to the basement membranes were scored, with respect to whether they were inside the basement membranes (invaded), or were still adherent to the exterior surface (uninvaded). Mean invasion percentages were determined with their first standard deviations for each sample.

[8] = test system: Panc1 cells; assay: as above; type: cell-based; conditions: 1 μg/ml peptide, single 2 Gy dose, 16 hours
Protocol: as §1

α5β1 integrin, sequence (P08648 42-894 limits assumed): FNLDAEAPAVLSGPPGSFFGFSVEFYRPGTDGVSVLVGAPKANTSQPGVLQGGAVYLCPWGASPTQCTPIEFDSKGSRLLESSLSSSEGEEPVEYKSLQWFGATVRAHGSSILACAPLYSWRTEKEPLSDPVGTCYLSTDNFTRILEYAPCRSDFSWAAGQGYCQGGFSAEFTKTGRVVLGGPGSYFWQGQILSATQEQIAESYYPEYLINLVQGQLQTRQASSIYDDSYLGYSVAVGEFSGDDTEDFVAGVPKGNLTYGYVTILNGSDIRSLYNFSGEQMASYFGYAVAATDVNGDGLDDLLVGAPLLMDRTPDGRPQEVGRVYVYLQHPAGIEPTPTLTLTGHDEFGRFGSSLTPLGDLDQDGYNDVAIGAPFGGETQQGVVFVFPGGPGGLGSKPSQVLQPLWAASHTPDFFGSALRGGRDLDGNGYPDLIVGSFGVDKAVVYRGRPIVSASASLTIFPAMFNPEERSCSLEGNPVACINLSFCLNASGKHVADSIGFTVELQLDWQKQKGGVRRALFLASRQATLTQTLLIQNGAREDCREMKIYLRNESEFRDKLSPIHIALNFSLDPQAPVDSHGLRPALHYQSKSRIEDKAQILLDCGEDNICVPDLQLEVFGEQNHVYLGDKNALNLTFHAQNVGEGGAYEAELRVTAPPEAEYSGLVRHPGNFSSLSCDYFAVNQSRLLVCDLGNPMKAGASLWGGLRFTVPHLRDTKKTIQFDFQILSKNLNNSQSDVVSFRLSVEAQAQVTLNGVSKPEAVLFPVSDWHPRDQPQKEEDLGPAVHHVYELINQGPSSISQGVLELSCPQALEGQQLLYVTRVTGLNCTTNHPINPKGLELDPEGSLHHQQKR
α5β1 integrin, sequence (P08648 895-1049 partner limits assumed): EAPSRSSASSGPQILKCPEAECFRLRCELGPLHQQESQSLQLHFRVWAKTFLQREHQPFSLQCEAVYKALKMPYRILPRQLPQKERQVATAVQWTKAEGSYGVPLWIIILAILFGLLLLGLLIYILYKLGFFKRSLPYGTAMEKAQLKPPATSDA
α5β1 integrin, sequence (P05556 21-798 partner): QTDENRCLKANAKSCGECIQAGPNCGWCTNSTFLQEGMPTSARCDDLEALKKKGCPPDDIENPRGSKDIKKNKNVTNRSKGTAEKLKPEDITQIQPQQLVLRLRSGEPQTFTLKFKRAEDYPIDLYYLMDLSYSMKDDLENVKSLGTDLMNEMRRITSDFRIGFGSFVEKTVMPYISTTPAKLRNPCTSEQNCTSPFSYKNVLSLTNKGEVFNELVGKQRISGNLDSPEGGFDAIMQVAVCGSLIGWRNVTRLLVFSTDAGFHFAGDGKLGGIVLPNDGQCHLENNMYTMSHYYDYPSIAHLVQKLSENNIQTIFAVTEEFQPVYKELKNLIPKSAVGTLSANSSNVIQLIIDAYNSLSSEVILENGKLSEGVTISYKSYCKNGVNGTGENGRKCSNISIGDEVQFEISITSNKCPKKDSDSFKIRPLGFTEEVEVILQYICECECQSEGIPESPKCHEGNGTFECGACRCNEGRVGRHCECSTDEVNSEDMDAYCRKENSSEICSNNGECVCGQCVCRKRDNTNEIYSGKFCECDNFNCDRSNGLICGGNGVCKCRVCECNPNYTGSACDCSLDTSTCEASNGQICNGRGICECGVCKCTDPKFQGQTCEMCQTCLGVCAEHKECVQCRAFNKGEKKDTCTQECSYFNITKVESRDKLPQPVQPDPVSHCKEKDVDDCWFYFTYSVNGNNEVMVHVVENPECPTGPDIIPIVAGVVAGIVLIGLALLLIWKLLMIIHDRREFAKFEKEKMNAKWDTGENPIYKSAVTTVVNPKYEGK

Substance: Ac-PHSCN-NH2 [PHSCN, Ac-PHSCN—NH2]
- potency at preventing hmvec invasion [1]: equally potent
- concentration preventing metastatic disease progression [2]: 1 to 2 µM
- dosage preventing metastatic disease progression [2]: 0.5 to 50 mg/kg
- adverse events ([3]; human, in vivo): without significant adverse events
- time metastatic disease progression was prevented ([3]; thrice-weekly systemic monotherapy): 4 to 14 months
- IC50 (concentration exhibiting a 50% inhibition of invasion, relative to stimulated controls) [4]: 30,000 pg/ml
- mean tumor diameter: untreated tumors fold larger relative to treated tumors [5]: over 6 fold
- α5β1 expression on irradiated cancer cells [6]: dramatically downregulated
- invasion after irradiation [7]: reduced invasion to zero
- invasion after irradiation [8]: reduced invasion to zero
